Structures can show the parent of a compound that is named as a salt.
Assays:
[1] = target: T1, human RORγt ligand binding domain (RORγt LBD) (Homo sapiens, UniProt P51449); test: ThermoFluor® Assay (RORγt thermal shift binding); settings: 0.065 mg/mL RORγt, 60 µM 1,8-ANS, pH 7.0; estimated from concentration response curves
T1 construct: His-tag (N); TurboTEV protease cleavage site (ENLYFQG) (N); made in house; host or cells: E. coli (pHIS1, modified pET vector)
T1 sequence (P51449 258-518): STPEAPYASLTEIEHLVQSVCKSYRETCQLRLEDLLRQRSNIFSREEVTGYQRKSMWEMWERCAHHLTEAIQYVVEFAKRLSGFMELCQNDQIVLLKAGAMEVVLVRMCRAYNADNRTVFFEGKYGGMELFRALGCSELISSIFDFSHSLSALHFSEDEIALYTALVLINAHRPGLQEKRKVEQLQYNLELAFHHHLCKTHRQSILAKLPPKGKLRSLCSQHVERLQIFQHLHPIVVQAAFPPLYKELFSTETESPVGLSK
Description: This approach is applicable to a wide variety of systems, and rigorous in theoretical interpretation through quantitation of equilibrium binding constants (KD).
The shift in the melting point described as a ΔTm is proportional to the concentration and affinity of the ligand. The compound potency may be compared as a rank order of either ATm values at a single compound concentration or in terms of KD values, estimated from concentration response curves.
ThermoFluor® experiments were carried out using instruments owned by Janssen Research and Discovery, L.L.C. through its acquisition of 3-Dimensional Pharmaceuticals, Inc. 1,8-ANS (Invitrogen) was used as a fluorescent dye. Protein and compound solutions are dispensed into black 384-well polypropylene PCR microplates (Abgene) and overlayed with silicone oil (1 µL, Fluka, type DC 200) to prevent evaporation.
Bar-coded assay plates are robotically loaded onto a thermostatically controlled PCR-type thermal block and then heated at a typical ramp-rate of 1 °C/minute for all experiments. Fluorescence was measured by continuous illumination with UV light (Hamamatsu LC6) supplied via fiber optic and filtered through a band-pass filter (380-400 nm; >6 OD cutoff). Fluorescence emission of the entire 384-well plate was detected by measuring light intensity using a CCD camera (Sensys, Roper Scientific) filtered to detect 500 ± 25 nm, resulting in simultaneous and independent readings of all 384 wells. Images were collected at each temperature, and the sum of the pixel intensity in a given area of the assay plate was recorded versus temperature. Reference wells contained RORyt without compounds, and the assay conditions were as follows: • 0.065 mg/mL RORγt • 60 µM 1,8-ANS • 100 mM Hepes, pH 7.0 • 10 mM NaCl • 2.5 mM GSH • 0.002% Tween-20
Project compounds were arranged in a pre-dosed mother plate (Greiner Bio-one) wherein compounds are serially diluted in 100% DMSO by 1:2 from a high concentration of 10 mM over 12 columns within a series (column 12 is a reference well containing DMSO, no compound). The compounds were robotically dispensed directly into assay plates (1x = 46 nL) using a Hummingbird capillary liquid handling instrument (Digilab). Following compound dispense, protein and dye in buffer was added to achieve the final assay volume of 3 µL, followed by 1 µL of silicone oil.

human RORγt LBD = target: T2, human RORγt LBD (Homo sapiens, UniProt P51449); test: RORγt (LBD) Reporter Assay (GAL4 luciferase, HEK293T cells); format: cell-based; settings: for inhibition at 6 µM: HEK-293T; for IC50: compounds for 24 hours
T2 construct: expressed in transfected cells; host or cells: HEK293T
T2 sequence (P51449 258-518): T1 sequence (P51449 258-518)
Description: Compounds were assessed for RORgt functional modulation using either the RORgt ligand binding domain (LBD) reporter assay, or the RORgt full-length (FL) reporter assay.
A reporter assay was used to test functional activity of RORγt modulatory compounds on transcriptional activation driven by the RORγt LBD. Cells used in the assay were co-transfected with two constructs. The first construct, pBIND-RORγt LBD, contained the wild type human RORγt LBD fused to the DNA binding domain of the GAL4 protein. The second construct, pGL4.31 (Promega Cat no. C935A), contained multiple GAL4 responsive DNA elements upstream of firefly luciferase. […] The mutant construct was called pBIND-RORγt-AF2.
The pBIND vector contains the GAL4 DNA Binding Domain (GAL4 DBD) and the renilla luciferase gene under control of the SV40 promoter. Renilla luciferase expression serves as a control for transfection efficiency and cell viability.
The reporter assay was performed by transiently transfecting HEK293T cells with 5 µg of pBIND-RORγt LBD or pBIND-RORγt LBD-AF2 and 5 µg pGL4.31 (Promega Cat no. C935A) using Fugene 6 (Invitrogen Cat no. E2691) at a 1:6 ratio of DNA: Fugene 6 in a T-75 flask in which cells were at least 80% confluent. Twenty four hours after bulk transfection, cells were plated into 96-well plates at 50,000 cells/well in phenol-red free DMEM containing 5% Lipid Reduced FCS and Pen/Strep. Six hours after plating, cells were treated with compounds for 24 hours. Media was removed and cells were lysed with 50 µL 1x Glo Lysis Buffer (Promega). Dual Glo Luciferase Reagent (50 µL/well) was then added and firefly luciferase luminescence was read on an Envision after a ten minute incubation. Finally, Stop and Glo reagent (50 µL/well) was added and renilla luciferase luminescence was read on an Envision after a ten minute incubation. To calculate the effect of compounds on RORγt activity, the ratio of firefly to renilla luciferase was determined and plotted against compound concentration. Agonist compounds increase RORγt-driven luciferase expression, and antagonist or inverse agonist compounds decrease luciferase expression.

Compound	Kd [1] [nM]	inhibition at 6 µM (human RORγt LBD; 6 µM compound) [%]	IC50 (human RORγt LBD) [nM]	RORγt (LBD) Reporter Assay, % inhibition @ 6 µM (human RORγt LBD; 6 µM compound, 6 µM) [%]
OC(c1ccc(Cl)cc1)c1ccc2nc(Cl)c(-c3ccccc3Cl)c(Cl)c2c1 (centres unmarked) [Example 26, (4-Chlorophenyl)(2,4-dichloro-3-(2-chlorophenyl)quinolin-6-yl)methanol]	1400	68	~3000	–
Cc1ccc(C(O)c2ccc3nc(N4CCC4)c(Cc4ccc(C(F)(F)F)cc4)c(Cl)c3c2)c(C)n1 (centres unmarked) [Example 23a, {2-Azetidin-1-yl-4-chloro-3-[4-(trifluoromethyl)benzyl]quinolin-6-yl}(2,6-dimethylpyridin-3-yl)methanol]	140	95	180	–
Cc1noc(C)c1C(O)c1ccc2nc(Cl)c(-c3ccccc3)c(Cl)c2c1 (centres unmarked) [Example 1, (2,4-Dichloro-3-phenylquinolin-6-yl)(3,5-dimethylisoxazol-4-yl)methanol]	550	48	> 6000	–
COc1nc2ccc(C(O)c3ccc(C)nc3C)cc2cc1Cc1ccc(C(F)(F)F)cc1 (centres unmarked) [Example 16, (2,6-Dimethylpyridin-3-yl)(2-methoxy-3-(4-(trifluoromethyl)benzyl)quinolin-6-yl)methanol]	4800	88	1900	–
OC(c1ccncc1)c1ccc2nc(Cl)c(Cc3ccccc3)c(Cl)c2c1 (centres unmarked) [Example 24, (3-Benzyl-2,4-dichloroquinolin-6-yl)(pyridin-4-yl)methanole•TFA]	230	41	> 6000	–
COc1nc2c(C)cc(C(O)c3cncn3C)cc2c(Cl)c1Cc1cccc(C(F)(F)F)c1 (centres unmarked) [Example 11, (4-Chloro-2-methoxy-8-methyl-3-(3-(trifluoromethyl)benzyl)quinolin-6-yl)(1-methyl-1H-imidazol-5-yl)methanol]	150	24	> 6000	–
Cn1cncc1C(O)c1ccc2nc(Cl)c(-c3ccccc3)c(Cl)c2c1 (centres unmarked) [Example 2, (2,4-Dichloro-3-phenylquinolin-6-yl)(1-methyl-1H-imidazol-5-yl)methanol]	1600	12	> 6000	–
Cc1cc(C(O)c2cncn2C)cc2c(Cl)c(-c3ccccc3)c(Cl)nc12 (centres unmarked) [Example 4, (2,4-Dichloro-8-methyl-3-phenylquinolin-6-yl)(1-methyl-1H-imidazol-5-yl)methanol•TFA]	4900	-1	> 6000	–
OC(c1ccc(Cl)cc1)c1ccc2nc(Cl)c(-c3ccccc3)c(Cl)c2c1 (centres unmarked) [Example 35, (4-Chlorophenyl)(2,4-dichloro-3-phenylquinolin-6-yl)methanol]	25000	45	> 6000	–
Cn1cncc1C(O)c1ccc2nc(Cl)c(-c3ccccc3Cl)c(Cl)c2c1 (centres unmarked) [Example 3, (2,4-Dichloro-3-(2-chlorophenyl)quinolin-6-yl)(1-methyl-1H-imidazol-5-yl) methanol]	450	–	–	–

More lines, now with the values ahead:

Kd [1] [nM]	inhibition at 6 µM (human RORγt LBD; 6 µM compound) [%]	IC50 (human RORγt LBD) [nM]	RORγt (LBD) Reporter Assay, % inhibition @ 6 µM (human RORγt LBD; 6 µM compound, 6 µM) [%]	Compound
200	91	380	–	Cc1ncc(C(O)c2ccc3nc(N4CCC4)c(Cc4ccc(-n5cccn5)cc4)c(Cl)c3c2)n1C (centres unmarked) [Example 21a, {2-Azetidin-1-yl-4-chloro-3-[4-(1H-pyrazol-1-yl)benzyl]quinolin-6-yl)(1,2-dimethyl-1H-imidazol-5-yl)methanol]
220	95	790	–	COc1nc2ccc(C(O)C3CCN(C(C)=O)CC3)cc2c(Cl)c1Cc1ccc(C(F)(F)F)cc1 (centres unmarked) [Example 6, (1-Acetylpiperidin4-yl){4-chloro-2-methoxy-3-[4-(trifluoromethyl)benzyl]quinolin-6-yl}methanol]
600	92	~1000	–	COc1nc2c(C)cc(C(O)c3cncn3C)cc2c(Cl)c1Cc1ccc(-n2cccn2)cc1 (centres unmarked) [Example 12, (3-(4-(1H-Pyrazol-1-yl)benzyl)-4-chloro-2-methoxy-8-methylquinolin-6-yl)(1-methyl-1H-imidazol-5-yl)methanole•TFA]
180	40	–	–	COc1nc2ccc(C(O)c3cnc(C)n3C)cc2c(Cl)c1Cc1ccc(F)cc1 (centres unmarked) [Example 8a]
260	88	690	–	Cc1ncc(C(O)c2ccc3nc(N4CCC4)c(Cc4ccc(-n5cccn5)cc4)c(Cl)c3c2)n1C (single isomer, unassigned) [Example 21b, {2-Azetidin-1-yl-4-chloro-3-[4-(1H-pyrazol-1-yl)benzyl]quinolin-6-yl}(1,2-dimethyl-1H-imidazol-5-yl)methanol]
3000	59	~6000	–	COc1nc2c(C)cc(C(O)c3cncn3C)cc2c(Cl)c1Cc1ccc(S(C)(=O)=O)cc1 (centres unmarked) [Example 10]
350	79	240	–	COc1nc2ccc(C(O)c3oc(C)nc3C)cc2c(Cl)c1Cc1ccc(C(F)(F)F)cc1 (centres unmarked) [Example 19, (4-Chloro-2-methoxy-3-(4-(trifluoromethyl)benzyl)quinolin-6-yl)(2,4-dimethyloxazol-5-yl)methanol]
480	93	~2000	–	Cn1cncc1C(O)c1ccc2nc(Cl)c(Cc3ccc(-n4cccn4)cc3)c(Cl)c2c1 (centres unmarked) [Example 7, (3-(4-(1H-Pyrazol-1-y1)benzyl)-2,4-dichloroquinolin-6-yl)(1-methyl-1H-imidazol-5-yl)methanol]
71	–	–	–	COc1nc2ccc(C(O)c3ccc(C)nc3C)cc2c(Cl)c1Cc1ccc(C(F)(F)F)cc1 (centres unmarked) [Example 14a, (4-Chloro-2-methoxy-3-(4-(trifluoromethyl)benzyl)quinolin-6-yl)(2,6-dimethylpyridin-3-yl)methanol]
1200	43	> 6000	–	Cc1ncc(C(O)c2ccc3nc(Cl)c(-c4ccccc4)c(Cl)c3c2)n1C (centres unmarked) [Example 13, (2,4-Dichloro-3-phenylquinolin-6-yl)(1,2-dimethyl-1H-imidazol-5-yl)methanol]
–	–	–	37	COc1nc2ccc(C(O)c3cnc(C)n3C)cc2c(Cl)c1Cc1ccc(F)cc1 (single isomer, unassigned) [Example 8c]
240	96	380	–	COc1nc2ccc(C(O)c3cncn3C)cc2c(Cl)c1Cc1ccc(C(F)(F)F)cc1 (centres unmarked) [Example 18a, (4-Chloro-2-methoxy-3-(4-(trifluoromethyl)benzyl)quinolin-6-yl)(1-methyl-1H-imidazol-5-yl)methanol]
